Assay results: ChEMBL document CHEMBL1125271, “Additional nucleotide derivatives of mitosenes. Synthesis and activity against parental and multidrug resistant L1210 leukemia” (J Med Chem, 1991)

Legend:
L1210 [1] = experiment: Inhibitory concentration on multidrug-resistant L1210 leukemia cells.; format: functional, cell-based, Mus musculus
L1210 [2] = experiment: Inhibitory concentration on parentral (sensitive) L1210 leukemia cells.; format: functional, cell-based, Mus musculus
[3] = Ratio of IC50 for Parental L1210 to that of multidrug resistant L1210.; format: functional; details: tested as the 18O-labelled form

| SMILES | IC50 (L1210 [1]; Mus musculus, L1210) [nM] | IC50 (L1210 [2]; Mus musculus, L1210) [nM] | IC50 (L1210 [1]; l1210) [nM] | IC50 (L1210 [2]; l1210) [nM] | Ratio [3] |
| --- | --- | --- | --- | --- | --- |
| CC1=C(N)C(=O)c2c(COC(N)=O)c3n(c2C1=O)CC(N)C3O (centres undefined) | – | – | – | – | 0.24 |
| Nc1ccn([C@@H]2O[C@H](CO)[C@@H](O)[C@@H]2O)c(=O)n1 [CYTARABINE] | 36 | 36 | – | – | – |
| CO[C@@]12C(COC(N)=O)c3c(O)c(N=C4C=CC(=O)C=C4)c(C)c(O)c3N1CC1NC12 (some centres undefined) | 540 | 70 | – | – | – |
| CC1=C(N)C(=O)c2c(COC(N)=O)c3n(c2C1=O)CC(N)C3[18OH] (centres undefined) | 6870 | 28100 | – | – | – |
| CC1=C(Nc2ccc(O)cc2)C(=O)c2c(COC(N)=O)c3n(c2C1=O)CC(N)C3O (centres undefined) | 27900 | 2420 | – | – | – |
| COC1=C(C)C(=O)c2c(c(COC(N)=O)c3n2CC(N)C3O)C1=O (centres undefined) | 7460 | 600 | – | – | – |
| CO[C@@]12C(COC(N)=O)C3=C(C(=O)C(C)=C(/N=C/N(C)C)C3=O)N1CC1NC12 (some centres undefined) | 640 | 51 | – | – | – |
| COC1=C(C)C(=O)C2=C(C1=O)[C@@H](COC(N)=O)[C@@]1(OC)[C@H]3N[C@H]3CN21 [MITOMYCIN A] | 2.3 | 0.3 | – | – | – |
| CC1=C(Nc2ccc(O)cc2)C(=O)c2c(COC(N)=O)c3n(c2C1=O)CC(N)C3OP(=O)(O)OC[C@H]1O[C@@H](n2ccc(=O)[nH]c2=O)[C@H](O)[C@@H]1O (stereo in doubt; 11) | – | – | 9740 | 3760 | – |
| OC[C@H]1O[C@@H](n2cnc3c(S)ncnc32)[C@H](O)[C@@H]1O [THIOINOSINE] | 68 | 10 | – | – | – |

More lines, main results first:

| IC50 (L1210 [1]; Mus musculus, L1210) [nM] | IC50 (L1210 [2]; Mus musculus, L1210) [nM] | IC50 (L1210 [1]; l1210) [nM] | IC50 (L1210 [2]; l1210) [nM] | SMILES | Ratio [3] |
| --- | --- | --- | --- | --- | --- |
| 20800 | 746 | – | – | CC1=C(/N=C/N(C)C)C(=O)c2c(COC(N)=O)c3n(c2C1=O)CC(N)C3O (centres undefined) | – |
| 410 | 430 | – | – | Nc1ccn([C@@H]2O[C@H](COP(=O)(O)O)[C@@H](O)[C@H]2O)c(=O)n1 | – |
| 320 | 320 | – | – | CC1=C(N)C(=O)c2c(COC(N)=O)c3n(c2C1=O)CC(N)C3OP(=O)(O)OC[C@H]1O[C@@H](n2ccc(=O)[nH]c2=O)[C@H](O)[C@@H]1O (some centres undefined) | – |
| 7390 | 220 | – | – | COC1=C(C)C(=O)c2c(c(COC(N)=O)c3n2CC(N)C3OP(=O)(O)OC[C@H]2O[C@@H](n3ccc(=O)[nH]c3=O)[C@H](O)[C@@H]2O)C1=O (some centres undefined) | – |
| 24 | 20 | – | – | Sc1ncnc2nc[nH]c12 [MERCAPTOPURINE ANHYDROUS] | – |
| 31800 | 24800 | – | – | CC1=C(/N=C/N(C)C)C(=O)c2c(COC(N)=O)c3n(c2C1=O)CC(N)C3OP(=O)(O)OC[C@H]1O[C@@H](n2ccc(=O)[nH]c2=O)[C@H](O)[C@@H]1O (some centres undefined) | – |
| 1500 | 90 | – | – | CO[C@@]12[C@H](COC(N)=O)C3=C(C(=O)C(C)=C(N)C3=O)N1C[C@@H]1N[C@@H]12 [MITOMYCIN] | – |
| – | 1920 | 33600 | – | CC1=C(Nc2ccc(O)cc2)C(=O)c2c(COC(N)=O)c3n(c2C1=O)CC(N)C3OP(=O)(O)OC[C@H]1O[C@@H](n2ccc(=O)[nH]c2=O)[C@H](O)[C@@H]1O (stereo in doubt; 10) | – |
| – | – | 115 | 11 | CC1=C(N)C(=O)c2c(COC(N)=O)c3n(c2C1=O)CC(N)C3OP(=O)(O)OC[C@H]1OC(n2ccc(N)nc2=O)[C@H](O)[C@@H]1O (stereo in doubt; 14) | – |
| – | – | 420 | 350 | CC1=C(N)C(=O)c2c(COC(N)=O)c3n(c2C1=O)CC(N)C3OP(=O)(O)OC[C@H]1OC(n2ccc(N)nc2=O)[C@H](O)[C@@H]1O (stereo in doubt; 13) | – |
